Assay: Critical water activity of solid forms, samples tested by powder X-ray diffraction
Type: physicochemical
Source text: Critical water activity is a phase boundary above which a hydrate is a stable form. […] Values of aw. correspond to percent humidity, where the percent humidity is described as 100 x aw. Thus 0.1 aw corresponds to 10% humidity, 0.2 aw corresponds to 20% humidity, and so on. The claimed polymorphic forms of Compound 1 mono-hydrochloride interconvert between Form 1 and Form 2 at a critical water activity of between 0.60 and 0.65 (corresponding to a relative humidity of between 60% and 65%). The critical water activity of the free base form of Compound 1 is between 0.2 and 0.3 (corresponding to a relative humidity between 20% and 30%). It is noted that manufacturing processes are routinely run at relative humidities that exceed 30% relative humidity, but manufacturing processes run at relative humidities of >60% are unusual. Samples were tested using powder X-ray diffraction. Analysis was conducted using a Bruker AXS D8 Endeavor diffractometer equipped with a Cu radiation source. The divergence slit was set at 6 mm continuous illumination. Diffracted radiation was detected by a PSD-Lynx Eye detector, with the detector PSD opening set at 4.104 degrees. The X-ray tube voltage and amperage were set to 40 kV and 40 mA respectively. Data was collected in the Theta-Theta goniometer at the Cu wavelength from 3.0 to 40.0 degrees 2-Theta using a step size of 0.020 degrees and a step time of 0.3 second. Samples were prepared by placing them in a silicon low background sample holder and rotated during collection. Data were collected using Bruker DIFFRAC Plus software and analysis was performed by EVA diffract plus software.

| PXRD Result (solid form) (Water Activity at Room Temperature 0.60 aw) | PXRD Result (solid form) (Water Activity at Room Temperature 0.65 aw) | PXRD Result (solid form) (Water Activity at Room Temperature 0.70 aw) | PXRD Result (solid form) (Water Activity at Room Temperature 0.75 aw) | PXRD Result (solid form) (Water Activity at Room Temperature 0.80 aw) | PXRD Result (solid form) (Water Activity at Room Temperature 0.1 aw) | PXRD Result (solid form) (Water Activity at Room Temperature 0.2 aw) | PXRD Result (solid form) (Water Activity at Room Temperature 0.3 aw) | PXRD Result (solid form) (Water Activity at Room Temperature 0.5 aw) | PXRD Result (solid form) (Water Activity at Room Temperature 1.0 Aw) | Structure (SMILES) |
| --- | --- | --- | --- | --- | --- | --- | --- | --- | --- | --- |
| Form 1 | Form 2 | Form 2 | Form 2 | Form 2 |  |  |  |  |  | CC(C)c1cnc(-c2cc(Cl)ccc2F)cc1Nc1ccncc1C(=O)NC(CO)CO.Cl [Compound 1, mono-HCl salt, 4-(2-(5-chloro-2-fluorophenyl)-5-isopropylpyridin-4-ylamino)-N-(1,3-dihydroxypropan-2-yl)nicotinamide mono hydrochloride] |
|  |  |  |  |  | free base anhydrous | free base anhydrous | free base monohydrate | free base monohydrate | free base monohydrate | CC(C)c1cnc(-c2cc(Cl)ccc2F)cc1Nc1ccncc1C(=O)NC(CO)CO [Compound 1, Free Base, 4-(2-(5-chloro-2-fluorophenyl)-5-isopropylpyridin-4-ylamino)-N-(1,3-dihydroxypropan-2-yl)nicotinamide] |
